According to patent publication US8148391B2 (Cephalon, Inc., priority 2006, dated 2012):
Counter-ions that a name gives are not always drawn. Like-named read-outs stand apart in the source and are kept apart here.

How the values were obtained:
[1] = molecular target: T1, baculovirus-expressed ALK (Homo sapiens, UniProt Q9UM73); assay: ALK Kinase Assay (ELISA-type, time-resolved fluorescence); assay type: biochemical
T1 construct: host or cells: baculovirus expression system
Procedure, shortened: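 Plates coated with phospholipase C-γ substrate (10 μg/mL in TBS); reaction started with 30 ng/ml ALK and run 15 min at 37° C. Phosphorylated substrate detected with Eu-N1-labeled PT66 antibody. IC50 from sigmoidal variable-slope fit of percent inhibition vs log concentration.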

[2] = molecular target: T2, c-Met (cytoplasmic domain) (Homo sapiens, UniProt P08581); assay: c-Met Kinase Assay (same methods as for ALK, with modifications); assay type: biochemical
T2 construct: 10 ng/mL c-Met (cytoplasmic domain, Invitrogen Corporation #PV3143); purchased Invitrogen Corporation PV3143
T2 sequence (P08581 956-1390 limits assumed): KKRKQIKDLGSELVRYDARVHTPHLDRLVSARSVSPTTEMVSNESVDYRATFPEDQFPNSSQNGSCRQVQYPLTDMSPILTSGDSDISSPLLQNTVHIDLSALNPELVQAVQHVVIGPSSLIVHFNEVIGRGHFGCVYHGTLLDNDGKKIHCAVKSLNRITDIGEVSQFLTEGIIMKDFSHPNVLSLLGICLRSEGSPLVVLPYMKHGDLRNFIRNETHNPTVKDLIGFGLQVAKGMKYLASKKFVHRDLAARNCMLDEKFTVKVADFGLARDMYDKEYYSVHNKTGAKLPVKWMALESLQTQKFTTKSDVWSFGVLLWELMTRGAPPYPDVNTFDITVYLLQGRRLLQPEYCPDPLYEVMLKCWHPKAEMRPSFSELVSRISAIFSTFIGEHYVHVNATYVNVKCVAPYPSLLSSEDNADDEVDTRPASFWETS
Procedure, shortened: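 Plates were coated with phospholipase C-γ substrate (10 μg/mL) in TBS, and the reaction was started with 10 ng/mL c-Met cytoplasmic domain and run 15 min at 37 °C. Phosphoproduct was detected with Eu-N1-labelled PT66 antibody. IC50 came from a variable-slope sigmoidal fit of percent inhibition vs log concentration.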

[3] = 1 μM ATP (Km level), 30 ng/ml ALK, 37° C., 15 minutes, read-out: ALK Activity (ALK kinase inhibition, IC50 class)
[4] = 1 μM ATP (Km level), 10 ng/mL c-Met, read-out: cMet Activity (c-Met kinase inhibition, IC50 class)
[5] = ALK kinase inhibition, 1 μM ATP, read-out: ALK Activity
[6] = c-Met kinase inhibition, 1 μM ATP, read-out: cMet Activity
[7] = ALK kinase inhibition, 1 μM ATP (Km level), read-out: ALK Activity
[8] = c-Met kinase inhibition, 1 μM ATP (Km level), read-out: cMet Activity
[9] = 1 μM ATP (Km level), read-out: ALK Activity (ALK Kinase Inhibition, IC50)
[10] = 1 μM ATP (Km level), read-out: cMet Activity (c-Met Kinase Inhibition, IC50)

T1 sequence (Q9UM73 19-1620): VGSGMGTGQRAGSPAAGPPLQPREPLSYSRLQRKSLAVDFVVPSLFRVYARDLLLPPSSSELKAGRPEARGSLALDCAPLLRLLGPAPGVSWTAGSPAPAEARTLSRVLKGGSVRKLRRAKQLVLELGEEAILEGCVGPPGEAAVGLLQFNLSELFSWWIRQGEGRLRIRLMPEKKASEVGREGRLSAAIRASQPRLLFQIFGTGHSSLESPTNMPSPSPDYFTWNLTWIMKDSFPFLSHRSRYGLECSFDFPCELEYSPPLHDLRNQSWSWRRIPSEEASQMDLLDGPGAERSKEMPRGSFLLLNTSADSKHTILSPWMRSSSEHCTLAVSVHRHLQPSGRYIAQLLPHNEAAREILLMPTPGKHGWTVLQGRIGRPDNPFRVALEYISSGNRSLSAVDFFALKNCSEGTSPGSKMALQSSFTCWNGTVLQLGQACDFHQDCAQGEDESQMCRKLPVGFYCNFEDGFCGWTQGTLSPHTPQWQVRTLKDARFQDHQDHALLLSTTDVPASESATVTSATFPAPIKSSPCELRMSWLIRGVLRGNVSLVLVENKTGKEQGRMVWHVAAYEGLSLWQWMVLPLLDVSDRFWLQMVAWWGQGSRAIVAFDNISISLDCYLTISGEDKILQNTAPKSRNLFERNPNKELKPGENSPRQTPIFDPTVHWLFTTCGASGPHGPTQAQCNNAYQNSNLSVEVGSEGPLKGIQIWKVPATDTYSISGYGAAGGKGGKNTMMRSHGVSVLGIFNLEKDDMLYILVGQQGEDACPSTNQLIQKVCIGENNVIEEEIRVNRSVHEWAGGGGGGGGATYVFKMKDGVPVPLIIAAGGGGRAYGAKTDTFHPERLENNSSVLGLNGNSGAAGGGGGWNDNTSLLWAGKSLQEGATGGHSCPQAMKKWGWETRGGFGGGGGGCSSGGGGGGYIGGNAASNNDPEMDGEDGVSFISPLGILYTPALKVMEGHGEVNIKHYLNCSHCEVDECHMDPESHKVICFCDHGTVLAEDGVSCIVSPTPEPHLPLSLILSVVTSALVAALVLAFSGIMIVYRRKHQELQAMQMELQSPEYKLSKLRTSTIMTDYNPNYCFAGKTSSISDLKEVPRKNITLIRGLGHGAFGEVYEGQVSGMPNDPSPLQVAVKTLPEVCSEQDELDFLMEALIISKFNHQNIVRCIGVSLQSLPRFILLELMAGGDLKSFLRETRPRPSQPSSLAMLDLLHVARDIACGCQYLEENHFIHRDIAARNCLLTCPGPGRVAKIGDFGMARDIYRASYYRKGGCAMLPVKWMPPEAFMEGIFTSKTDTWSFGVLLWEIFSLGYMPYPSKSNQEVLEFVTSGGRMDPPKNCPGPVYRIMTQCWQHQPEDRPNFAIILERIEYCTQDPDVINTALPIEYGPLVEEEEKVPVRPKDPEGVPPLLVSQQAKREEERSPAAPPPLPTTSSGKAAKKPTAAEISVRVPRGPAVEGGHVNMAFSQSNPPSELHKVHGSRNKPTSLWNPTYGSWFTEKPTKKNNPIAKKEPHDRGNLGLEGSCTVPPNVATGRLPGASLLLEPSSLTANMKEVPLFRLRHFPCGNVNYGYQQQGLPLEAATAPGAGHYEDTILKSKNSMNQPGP

SMILES | IC50 [1, 3] | IC50 [1, 5] | IC50 [2, 6] | further results
COc1cc2c(cc1Nc1ncc(Cl)c(N[C@@H]3CCCC[C@H]3NS(C)(=O)=O)n1)CCN(CC(=O)N1CCCC1)CC2 [Example 1160, N-((1R,2R)-2-{5-Chloro-2-[8-methoxy-3-(2-oxo-2-pyrrolidin-1-yl-ethyl)-2,3,4,5-tetrahydro-1H-benzo[d]azepin-7-ylamino]-pyrimidin-4-ylamino}-cyclohexyl)-methanesulfonamide] | < 100 nM |  |  | IC50 [2, 4]: > 10000 nM
CCN1C(=O)OCCc2cc(Nc3ncc(Cl)c(Nc4c(F)cccc4C(=O)NC)n3)ccc21 [Example 1746, 2-[5-chloro-2-(5-ethyl-6-oxo-5,6,8,9-tetrahydro-7-oxa-5-aza-benzocyclohepten-2-ylamino)-pyrimidin-4-ylamino]-3-fluoro-N-methyl-benzamide] |  | < 100 nM | < 100 nM | 
CC(C)N1CC2CC(C1)c1cc(Nc3ncc(Cl)c(N[C@@H]4CCCC[C@H]4NS(C)(=O)=O)n3)ccc12 (stereo partly drawn) [Example 165, N-{(1R,2R)-2-[5-Chloro-2-(10-isopropyl-10-aza-tricyclo[6.3.1.0*2,7*]dodeca-2,4,6-trien-4-ylamino)-pyrimidin-4-ylamino]-cyclohexyl}-methanesulfonamide] |  |  |  | IC50 [1, 7]: 100 to 1000 nM; IC50 [2, 8]: 1000 to 10000 nM
CN1C(=O)OCCc2cc(Nc3ncc(Cl)c(Nc4ccccc4-c4nccn4C)n3)ccc21 [Example 1749, 2-{5-chloro-4-[2-(1-methyl-1H-imidazol-2-yl)-phenylamino]-pyrimidin-2-ylamino}-5-methyl-8,9-dihydro-5H-7-oxa-5-aza-benzocyclohepten-6-one] |  | < 100 nM | 100 to 1000 nM | 
COc1cc(N2CCOCC2)ccc1Nc1nc(Nc2ccc3c(c2)N(C(C)C)C(=O)CCC3(C)C)ncc1Cl [Example 1591, 8-[5-Chloro-4-(2-methoxy-4-morpholin-4-yl-phenylamino)-pyrimidin-2-ylamino]-1-isopropyl-5,5-dimethyl-1,3,4,5-tetrahydro-benzo[b]azepin-2-one] |  | < 100 nM | > 10000 nM | 
CN1C(=O)CCC(C)(C)c2cc(Nc3ncc(Cl)c(Nc4ccccc4S(=O)(=O)N(C)C)n3)ccc21 [Example 1325, 2-[5-Chloro-2-(1,5,5-trimethyl-2-oxo-2,3,4,5-tetrahydro-1H-benzo[b]azepin-7-ylamino)-pyrimidin-4-ylamino]-N,N-dimethyl-benzenesulfonamide] | < 100 nM |  |  | IC50 [2, 4]: 100 to 1000 nM
COc1cc2c(cc1Nc1ncc(Cl)c(N[C@@H]3CCCC[C@H]3NS(C)(=O)=O)n1)CCN(C(=O)C(F)(F)F)CC2 [Example 247, N-((1R,2R)-2-{5-Chloro-2-[8-methoxy-3-(2,2,2-trifluoro-acetyl)-2,3,4,5-tetrahydro-1H-benzo[d]azepin-7-ylamino]-pyrimidin-4-ylamino}-cyclohexyl)-methanesulfonamide] |  |  |  | IC50 [1, 7]: < 100 nM; IC50 [2, 8]: > 10000 nM
COc1ccc(Nc2nc(Nc3cc4c(cc3OC)CCN(CC(=O)N(C)C)CC4)ncc2Cl)c(N2CCOCC2)c1 [Example 829, 2-{7-[5-Chloro-4-(4-methoxy-2-morpholin-4-yl-phenylamino)-pyrimidin-2-ylamino]-8-methoxy-1,2,4,5-tetrahydro-benzo[d]azepin-3-yl}-N,N-dimethyl-acetamide] |  |  |  | IC50 [1, 9]: < 100 nM; IC50 [2, 10]: > 10000 nM
CN(C)S(=O)(=O)c1ccccc1Nc1nc(Nc2ccc3c(c2)CCN(C(=O)C2COCCO2)CC3)ncc1Cl (centres unmarked) [Example 638, 2-{5-Chloro-2-[3-([1,4]dioxane-2-carbonyl)-2,3,4,5-tetrahydro-1H-benzo[d]azepin-7-ylamino]-pyrimidin-4-ylamino}-N,N-dimethyl-benzenesulfonamide] |  |  |  | IC50 [1, 9]: < 100 nM; IC50 [2, 10]: < 100 nM
CCN1CC(=O)Nc2cc(Nc3ncc(Cl)c(N[C@H]4[C@@H](C(N)=O)[C@@H]5C=C[C@H]4C5)n3)c(OC)cc2C1 [Example 1663, (1S,2S,3R,4R)-3-[5-Chloro-2-(4-ethyl-7-methoxy-2-oxo-2,3,4,5-tetrahydro-1H-benzo[e][1,4]diazepin-8-ylamino)-pyrimidin-4-ylamino]-bicyclo-[2.2.1]hept-5-ene-2-carboxylic acid amide] |  | < 100 nM | > 10000 nM | 
C#CCNC(=O)c1cccc(F)c1Nc1nc(Nc2ccc3c(c2)N(CCN2CCCC2)CCCC3(C)C)ncc1Cl [Example 1609, 2-{5-Chloro-2-[5,5-dimethyl-1-(2-pyrrolidin-1-yl-ethyl)-2,3,4,5-tetrahydro-1H-benzo[b]azepin-8-ylamino]-pyrimidin-4-ylamino}-3-fluoro-N-prop-2-ynyl-benzamide] |  | < 100 nM | 100 to 1000 nM | 
COc1cc2c(cc1Nc1ncc(Cl)c(Nc3ccccc3S(=O)(=O)N(C)C)n1)CCN(Cc1nccn1C)CC2 [Example 1171, 2-{5-Chloro-2-[8-methoxy-3-(1-methyl-1H-imidazol-2-ylmethyl)-2,3,4,5-tetrahydro-1H-benzo[d]azepin-7-ylamino]-pyrimidin-4-ylamino}-N,N-dimethyl-benzenesulfonamide] | < 100 nM |  |  | IC50 [2, 4]: 1000 to 10000 nM
CCN1C(=O)CCC(C)(C)c2ccc(Nc3ncc(Cl)c(N[C@H]4[C@@H](C(N)=O)[C@@H]5C=C[C@H]4C5)n3)cc21 [Example 1586, (1S,2S,3R,4R)-3-[5-Chloro-2-(1-ethyl-5,5-dimethyl-2-oxo-2,3,4,5-tetrahydro-1H-benzo[b]azepin-8-ylamino)-pyrimidin-4-ylamino]-bicyclo[2.2.1]hept-5-ene-2-carboxylic acid amide] |  | < 100 nM | < 100 nM | 
CCN1C(=O)CCC(C)(C)c2ccc(Nc3ncc(Cl)c(Nc4c(F)cccc4S(C)(=O)=O)n3)cc21 [Example 1259, 8-[5-Chloro-4-(2-fluoro-6-methanesulfonyl-phenylamino)-pyrimidin-2-ylamino]-1-ethyl-5,5-dimethyl-1,3,4,5-tetrahydro-1-benzazepin-2-one] | 100 to 1000 nM |  |  | IC50 [2, 4]: 1000 to 10000 nM
CCN1C(=O)C(NC(=O)COC)CCc2ccc(Nc3ncc(Cl)c(Nc4c(F)cccc4C(=O)NC)n3)cc21 (centres unmarked) [Example 1498, 2-{5-Chloro-2-[1-ethyl-3-(2-methoxy-acetylamino)-2-oxo-2,3,4,5-tetrahydro-1H-benzo[b]azepin-8-ylamino]-pyrimidin-4-ylamino}-3-fluoro-N-methyl-benzamide] |  | 100 to 1000 nM | < 100 nM | 
COc1cc2c(cc1Nc1ncc(Cl)c(Nc3ccccc3-n3cccn3)n1)CCN(CC(C)(F)F)CC2 [Example 825, 5-Chloro-N*2*-[3-(2,2-difluoro-propyl)-8-methoxy-2,3,4,5-tetrahydro-1H-benzo[d]azepin-7-yl]-N*4*-(2-pyrazol-1-yl-phenyl)-pyrimidine-2,4-diamine] |  |  |  | IC50 [1, 9]: 100 to 1000 nM; IC50 [2, 10]: > 10000 nM
CNC(=O)c1scc(C)c1Nc1nc(Nc2ccc3c(c2)CN(C)C(=O)CC3)ncc1Cl [Example 1799, 3-[5-Chloro-2-(2-methyl-3-oxo-2,3,4,5-tetrahydro-1H-benzo[c]azepin-8-ylamino)-pyrimidin-4-ylamino]-4-methyl-thiophene-2-carboxylic acid methylamide] |  | < 100 nM | < 100 nM | 
CN1CCNCc2ccc(Nc3ncc(Cl)c(Nc4ccccc4NS(C)(=O)=O)n3)cc21 [Example 471, N-{2-[5-Chloro-2-(1-methyl-2,3,4,5-tetrahydro-1H-benzo[e][1,4]diazepin-8-ylamino)-pyrimidin-4-ylamino]-phenyl}-methanesulfonamide hydrochloride] |  |  |  | IC50 [1, 7]: < 100 nM; IC50 [2, 8]: 1000 to 10000 nM
CNC(=O)C1(Nc2nc(Nc3cc4c(cc3OC)CCN(CC(=O)N(C)C)CC4)ncc2Cl)CC1 [Example 1198, 1-[5-Chloro-2-(3-dimethylcarbamoylmethyl-8-methoxy-2,3,4,5-tetrahydro-1H-benzo[d]azepin-7-ylamino)-pyrimidin-4-ylamino]-cyclopropanecarboxylic acid methylamide] | < 100 nM |  |  | IC50 [2, 4]: > 10000 nM
CCN1C(=O)CCC(C)(C)c2cc(Nc3ncc(Cl)c(N[C@H]4[C@@H](C(N)=O)[C@@H]5C=C[C@H]4C5)n3)c(OC)cc21 [Example 1314, (1S,2S,3R,4R)-3-[5-Chloro-2-(1-ethyl-8-methoxy-5,5-dimethyl-2-oxo-2,3,4,5-tetrahydro-1H-benzo[b]azepin-7-ylamino)-pyrimidin-4-ylamino]-bicyclo[2.2.1]hept-5-ene-2-carboxylic acid amide] | < 100 nM |  |  | IC50 [2, 4]: > 10000 nM
COc1c(Nc2ncc(Cl)c(N[C@H]3[C@@H](C(N)=O)[C@@H]4C=C[C@H]3C4)n2)ccc2c1CC(N1CCOCC1)CCC2 (mixture of isomers) [Example 1204, (1S,2S,3R,4R)-3-[5-Chloro-2-(1-methoxy-8-morpholin-4-yl-6,7,8,9-tetrahydro-5H-benzocyclohepten-2-ylamino)-pyrimidin-4-ylamino]-bicyclo[2.2.1]hept-5-ene-2-carboxylic acid amide] | < 100 nM |  |  | IC50 ([2]; cMet Activity (c-Met kinase inhibition, IC50 class), 1 μM ATP (Km level), 10 ng/mL c-Met): > 10000 nM
COc1cc2c(cc1Nc1ncc(Cl)c(Nc3cc(Cl)ccc3OC)n1)CCN(CC(C)(F)F)CC2 [Example 785, 5-Chloro-N*4*-(5-chloro-2-methoxy-phenyl)-N*2*-[3-(2,2-difluoro-propyl)-8-methoxy-2,3,4,5-tetrahydro-1H-benzo[d]azepin-7-yl]-pyrimidine-2,4-diamine] |  |  |  | IC50 [1, 9]: 100 to 1000 nM; IC50 [2, 10]: > 10000 nM
